The source of these data is US6949522B2, “β-2′- or 3′-halonucleosides” (Pharmasset, Inc., priority 2001, dated 2005).

Like-named read-outs stand apart in the source and are kept apart here. Some results are limits rather than exact numbers.

One data set has as its system human PBM cells. Briefly: Toxicity assay (MTS/MTT dye), human PBM cells. The settings on record: read-out: Cytotoxicity PBM IC50; human PBM cells, 5 days incubation. The protocol:
(§1) After a three day-incubation for HepG2, or 5 days for human PBM cells, cell viability and mitochondrial activity were measured in a colorimetric assay using the MTS- or MTT dye method (Promega, Madison, Wis.).
On the technique in general: Tetrazolium assays rely on reduction of a dye to a coloured formazan, in cell work by metabolically active cells.

The test system of another data set is HepG2. Description: Toxicity assay (MTS/MTT dye), HepG2 cells. The settings on record: for Cytotoxicity HepG2 IC30: HepG2, three day-incubation (Table 1). The protocol: as §1
Data set [1] relates to HIV-1 LAI (wild type). Briefly: HIV-1 RT-assay on supernatant of acutely infected human PBM cells, strain LAI. In kind it is cell-based. The conditions noted are these: 5 days, RT activity reduced by 90%. The protocol:
(§2) Human PBM cells (1×10^6 cells/T25 flask) were PHA stimulated for 2 or 3 days, and infected with either a wild type (LAI and xxBRU) or a 3TC-resistant (xxBRU 184V) HIV-1 strain at 100 TCID50, as previously described (27). The culture was kept for 5 days in presence of test compounds at serial 1-log dilutions. Subsequently, human PBM cells were removed from the culture supernatant by centrifugation (10 minutes, 400×g, 4° C.). This clarified supernatant was tested either in the RT-assay, or in the Q-RT-PCR assay.
(§3) Virus particles present in a 1 mL aliquot of culture supernatant were concentrated by high-speed centrifugation (2 hours, 20,000×g, 4° C.). The supernatant was then removed and the virus pellet was dispensed into a 100 μL virus solubilization buffer (VSB: 0.5% Triton X-100; 0.8 M NaCl, 0.5 mM phenylmethylsulfonyl, 20% glycerol, 50 mM Tris.HCl pH 7.8). A 10 μL aliquot of RT-VSB was mixed with 75 μL RT cocktail (60 mM Tris.HCl pH 7.8, 12 mM MgCl2, 6 mM DTT, 6 μg/mL poly (rA)n-oligo (dT)10-12, 1.2 mM dATP, and 80 μCi/mL 3H-TTP) and incubated for 2 hours at 37° C. Subsequently 100 μL of 10% TCA was added, and the total amount of incorporated 3H-TTP was determined.
(§4) HIV-1 present in culture supernatant fluids was quantified by two different methodologies: i) the Q-RT-PCR with read-out in log copies/mL; and ii) the endogenous viral RT assay on cell supernatant with read-out in log counts per minute/mL (CPM/mL). Upon addition of antiviral compounds to the culture media, a dose-related decrease in virus production was observed. Although the two methodologies measured different parameters (viral RNA versus active RT enzyme), results were not markedly different from each other. The HIV-1 Q-RT-PCR results were compared with a previously established cell-based antiviral drug evaluation assay (endogenous HIV-1 RT polymerization activity in cell supematant)(27).

For data set [2], the system named is HIV-1 xxBRU (wild type). Briefly: HIV-1 RT-assay on supernatant of acutely infected human PBM cells, strain xxBRU. The data set is classed as cell-based. The settings on record: 5 days, RT activity reduced by 90%. The protocol:
as §2, §3, §4

The subject of data set [3] is 3TC-resistant (xxBRU 184V) HIV-1. Description: HIV-1 RT-assay on supernatant of acutely infected human PBM cells, strain xxBRU 184V. In kind it is cell-based. The settings on record: for EC90: human PBM cells, 5 days, RT activity reduced by 90%, read-out: RT-Assay 184V EC90. Here is the method:
as §2, §3, §4

Data set [4] has as its system HIV-1 LAI (wild type). Briefly: HIV-1 Q-RT-PCR assay in human PBM cells, strain LAI. The data set is classed as cell-based. The conditions noted are these: 5 days, viral RNA reduced by 90%. Here is the method:
as §2
(§5) Viral RNA present in the culture supernatant was prepared using commercially available columns (QIAamp Viral RNA mini Kit, Qiagen, Valencia, Calif.). Viral RNA was detected in real-time by monitoring increases in fluorescence signal that resulted from degradation of a quenched fluorescent probe molecule following the hybridization of the probe to the arnplified viral DNA (TaqMan 7700 chemistry, Applied Biosystems, Foster City, Calif.). The TaqMan probe and primers were designed using the Primer Express software (Applied Biosystems); they cover highly conserved sequences complementary to an 81 base pair long fragment from the HIV-1 RT gene between codon 230 and 257 of the group MHIV-1 genome; • probe 5′-6FAM-[…]-TAMRA-3′ (Sequence 1) • sense primer: 5′-[…]-3′ (Sequence 2); and • antisense primer 5′-[…]-3′ (Sequence 3).
(§6) A total of 5 μL RNA was RT-amplified using reagents and conditions as described by the manufacturer (Applied Biosystems). […] Copy numbers were calibrated using the Roche Amplicor HIV-1 Monitor test™ (Roche Diagnostics, Branchburg, N.J.) on a 1-log dilution series of a clinical HIV-1 genotype B isolate (attenuated in vitro to obtain a high viral load). The 10-6 diluted sample became positive at threshold cycle (Ct=PCR cycle threshold where a sample becomes detectable)=35.52, which corresponded to 1,410 copies/mL in the Roche monitor HIV-1 version II assay. When validated over a dynamic range of 3 logs of virus, there was excellent correlation (r2˜1) between the two methodologies. […] Therefore, the currently designed primer and probe set allowed reliable quantification of both clinical samples and HIV-1 in vitro preparations.
as §4

Data set [5] concerns HIV-1 xxBRU (wild type). Briefly: HIV-1 Q-RT-PCR assay in human PBM cells, strain xxBRU. The data set is classed as cell-based. The conditions noted are these: 5 days, viral RNA reduced by 90%. Here is the method:
as §2, §5, §6, §4

Data set [6] has as its system 3TC-resistant (xxBRU 184V) HIV-1. Description: HIV-1 Q-RT-PCR assay in human PBM cells, strain xxBRU 184V. The data set is classed as cell-based. The conditions noted are these: for EC90: human PBM cells, 5 days, viral RNA reduced by 90%, read-out: Q-RT-PCR HIV-1 assay 184V EC90. Here is the method: as §2, §5, §6, §4
In the next data set the test system is BVDV (strain NADL). Briefly: BVDV Q-RT-PCR assay in MDBK cells. In kind it is cell-based, bovine viral diarrhea virus. The settings on record: MDBK cells, 24 hour incubation, viral RNA in supernatant, read-out: BVDV assay Q-PCR EC90. The protocol:
Madin-Darby Bovine Kidney (MDBK) cells were maintained in DMEM/F12 supplemented with 10% heat-inactivated horse serum at 37° C. in a humidified, 5% CO2 atmosphere. Cells were seeded in 96-well plates at 5×10^3 cells/wcll and incubated for 1 hour. BVDV (strain NADL) was used to infect the cells in monolayer at MOI 0.02. After 45 minutes of infection, the viral inoculum was removed and the cells were washed twice. Media or media containing test compound was added to these cells, followed by 24 hour incubation. Cell supernatant fluids were collected, clarified by centrifugation (2 minutes, 3,000 g, room temperature) and viral RNA was prepared (QIAamp Viral RNA mini Kit, Qiagen). Viral RNA was detected in real-time RT-PCR.

Data set [7] is described as follows: in vitro. The settings on record: human. The protocol: as §1
Data set [8] can be described thus: in vitro. The conditions noted are these: human. The protocol: as §1
The source holds these as a separate data set.

In the next data set the test system is HBV. Briefly: HBV Q-PCR assay in HepAD38 (AD38) cells. The data set is classed as cell-based, hepatitis B virus. The settings on record: AD38 cells, 5-day incubation, HBV DNA in supernatant, read-out: HBV assay Q-PCR EC90. The protocol: The HepAD38 cell line replicates HBV under conditions that can be regulated with tetracycline (12, 15). In the presence of this drug, the cell supernatant is virtually free of viral DNA, but upon the removal of tetracycline from the culture medium, these cells secrete virus-like particle into the supernatant (12). HepAD38 cells were seeded at 5×10^4 cells/well in a 96-well plate in seeding medium (DMEM/F12+10% FBS, 50 μg/mL penicillin, 50 μg/mL streptomycin, 100 μg/mL kanamycin, 400 μg/mL G418, and 0.3 μg/mL tetracycline) and incubated for 2 days at 37° C. in a 5% CO2 humid atmosphere. The seeding media was removed, and cells were washed 3 times with PBS. Cells were then incubated with 200 μL assay medium (DMEM/F12+10% FBS+P/S/K) containing either no compound, test compound, or control drugs at 10 μM. After a 5-day incubation, the cell supernatant was collected and stored at −70° C. until HBV DNA was quantified. HBV DNA was extracted from supernatant using QiaAmp DNA blood Mini kit (Qiagen) and nucleic acids eluted in 200 μL. Viral DNA was detected in Q-PCR. The TaqMan probe and primers were designed using the Primer Express software (Applied Biosystems) and cover highly conserved sequences complementary to the DNA sequences present in HBsAg (24). A total of 5 μL DNA was amplified using reagents and conditions as described by the manufacturer (Applied Biosystems). […]

A word on the IC50: it is the concentration needed to halve the response being measured. As a reminder, the EC90 is the concentration needed for an effect of 90%. Regarding `Nc1nc(=O)n([C@H]2C=C[C@@H](CO)O2)cc1F` [D-D4FC, β-D-2′,3′-didehydro-2′3′-dideoxy-5-fluorocytidine, reference compound], the IC50 is 80 µM with human PBM cells and more than 100 µM in the data set with HepG2 (read-out: Cytotoxicity HepG2 IC50, HepG2, three day-incubation (Table 3)). The “Cytotoxicity HepG2 IC30” value in the data set on HepG2 was more than 100 µM. Also, the EC90 in the data set with HIV-1 LAI (wild type) [1] was determined as 0.18 µM; in the data set with HIV-1 xxBRU (wild type) [2] it was 0.08 µM; in data set [3], 0.15 µM; in the data set on HIV-1 LAI (wild type) [4], 0.38 µM; with HIV-1 xxBRU (wild type) [5], 0.22 µM; in data set [6] it was 0.21 µM. Besides, the EC90 in the data set with BVDV (strain NADL) was more than 200 µM. In addition, the “RT-Assay FI, fold increase (EC90 HIV-1184V/EC90 HIV-1xxBRU)” value (“RT-Assay FI, fold increase” below) in [3] turned out to be 1.9. The “Q-RT-PCR HIV-1 assay FI, fold increase (EC90 HIV-1184V/EC90 HIV-1xxBRU)” value in [6] was 0.97.

The compound `NC(=O)c1ncn([C@@H]2O[C@H](CO)[C@@H](O)[C@H]2O)n1` [Ribavirin, 1-β-D-ribofuranosyl-1H-,1,2,4-triazole-3-carboxamide, reference compound] gave an IC50 at 5 days in “in vitro [7]” of more than 100 µM. The IC50 at 3 days in the data set “in vitro [8]” was determined as 90 µM. The EC90 was more than 100 µM in the data set with HBV (Hepatitis B virus, HePAD38, 120 h); 5 µM with BVDV (strain NADL) (Bovine viral diarrhea virus isolates and strains).

With “β-D-2′,3′-didehydro-2′,3.′-dideoxy-3′-fluoro-5-fluoro cytidine [Compound 10-F]”, the “Cytotoxicity HepG2 IC30” value in the data set with HepG2 is more than 100 µM. Besides, the concentration for an effect of 90% (EC90) in the data set on HIV-1 LAI (wild type) [1] is 34.5 µM; in the data set with HIV-1 xxBRU (wild type) [2] it was 37.5 µM; in data set [3], 494 µM; with HIV-1 LAI (wild type) [4], 36.3 µM; in the data set on HIV-1 xxBRU (wild type) [5] it was 34.8 µM; in data set [6], more than 100 µM. In addition, the figures for the EC90 in the data set with HBV and with BVDV (strain NADL) were more than 100 µM and more than 200 µM, respectively. Further, in data set [3], the “RT-Assay FI, fold increase” value was found to be 13.2.

For the compound “β-L-2′,3′-didehydro-2′,3.′-dideoxy-3′-fluoro-5-fluoro cytidine [Compound 23-F]”, the “Cytotoxicity HepG2 IC30” value in the data set with HepG2 is more than 100 µM. In addition, the EC90 with HIV-1 LAI (wild type) [1] was 0.12 µM; with HIV-1 xxBRU (wild type) [2], 0.14 µM; in data set [3], 67 µM; in the data set on HIV-1 LAI (wild type) [4], 0.09 µM; in the data set with HIV-1 xxBRU (wild type) [5], 0.16 µM; in data set [6], 53 µM. Further, the values for the EC90 in the data set on HBV and in the data set with BVDV (strain NADL) were 68 µM and more than 200 µM, respectively. Further, the “RT-Assay FI, fold increase” value in [3] is 479. Also, the “Q-RT-PCR HIV-1 assay FI, fold increase (EC90 HIV-1184V/EC90 HIV-1xxBRU)” value in [6] is listed as 333.
